US20130310344A1, “N-ACYLSULFONAMIDE APOPTOSIS PROMOTERS” (ASTRAZENECA AB, priority 2010, published 2013)
Counter-ions that a name gives are not always drawn.

How the values were obtained:
Bcl-2 = target: T1, Bcl-2 (Homo sapiens, UniProt P10415); assay: Bcl-2 FP assay (competitive fluorescence polarization binding assay, FITC-Bim BH-3 peptide tracer); settings: c-terminal 6×HIS tagged Bcl-2 (aa 1-204), 1.3 nM; 2 nM FITC-Bim peptide tracer
T1 construct: a c-terminal 6×HIS tagged Bcl-2 (aa 1-204); 6xHis (C)
T1 sequence (P10415 1-204): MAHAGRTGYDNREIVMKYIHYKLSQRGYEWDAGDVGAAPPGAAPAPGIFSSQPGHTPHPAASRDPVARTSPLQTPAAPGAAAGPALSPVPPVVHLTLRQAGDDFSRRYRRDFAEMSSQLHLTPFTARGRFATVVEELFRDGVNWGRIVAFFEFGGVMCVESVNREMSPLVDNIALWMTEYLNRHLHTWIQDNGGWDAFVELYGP
From the text: (§1) Bcl-xL and Bcl-2 FP binding affinity of compound(s) of Formulae (I), (I-a), (I-b), (I-c), (I-d) and/or (I-e) may be determined using a variety of known methods. One such assay is a sensitive and quantitative in vitro binding assay using fluorescence polarization (“FP”) described by Wang, J.-L.; Zhang, Z-J.; Choksi, S.; Sjam. S.; Lu, Z.; Croce, C. M.; Alnemri, E. S.; Komgold, R.; Huang, Z. Cell permeable Bcl-2 binding peptides: a chemical approach to apoptosis induction in tumor cells. Cancer Res. 2000, 60, 1498-1502).
(§2) Additionally, the binding affinity of compound(s) of Formulae (I), (I-a), (I-b), (I-c), (I-d) and/or (I-e) to Bcl-2 protein in vitro was determined by a competitive binding assay based on fluorescence polarization. For example, fluorescence polarization (“FP”) assays may be developed using a c-terminal 6×HIS tagged Bcl-2 (aa 1-204) and a C-terminal 6×HIS tagged Bcl-XL (aa 1-209). […] Dilutions of either Bcl-2 (1.3 nM) or Bcl-XL (0.8 nM) may be added to serial dilutions of antagonist and incubated for one hour prior to the addition of 2 nM of fluorescent peptide tracer (Anaspec, Fremont, Calif.) in the assay buffer. Final assay buffer conditions may be 20 mM HEPES, pH 7.5, 1 mM DTT, 0.005% Tween-20 and 50 mM NaCl. Samples may be read after 20-minute incubation. Fluorescence polarization values may be plotted as a function of the antagonist concentration.

Bcl-XL = target: T2, Bcl-XL (Homo sapiens, UniProt Q07817); assay: Bcl-XL FP assay (competitive fluorescence polarization binding assay, FITC-Bim BH-3 peptide tracer); settings: C-terminal 6×HIS tagged Bcl-XL (aa 1-209), 0.8 nM; 2 nM FITC-Bim peptide tracer
T2 construct: a C-terminal 6×HIS tagged Bcl-XL (aa 1-209); 6xHis (C)
T2 sequence (Q07817 1-209): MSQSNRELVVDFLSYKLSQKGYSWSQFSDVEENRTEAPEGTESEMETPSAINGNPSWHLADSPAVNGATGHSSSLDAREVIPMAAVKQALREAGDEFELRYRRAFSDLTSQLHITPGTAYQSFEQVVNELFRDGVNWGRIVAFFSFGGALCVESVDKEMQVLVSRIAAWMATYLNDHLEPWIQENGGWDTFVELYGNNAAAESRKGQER
From the text: as §1, §2

Compound	IC50 (Bcl-2) [nM]	IC50 (Bcl-XL) [nM]
CCN(CCOP(=O)(O)O)CC[C@H](CSc1ccccc1)Nc1ccc(S(=O)(=O)NC(=O)c2ccc(N3CCC([C@@H](O)c4ccccc4-c4ccc(Cl)cc4)CC3)cc2)cc1S(=O)(=O)C(F)(F)F [Example 8, 2-(((R)-3-(4-(N-(4-(4-((R)-(4′-chlorobiphenyl-2-yl)(hydroxy)methyl)piperidin-1-yl)benzoyl)sulfamoyl)-2-(trifluoromethylsulfonyl)phenylamino)-4-(phenylthio)butyl)(ethyl)amino)ethyl dihydrogen phosphate, hydrochloride salt]	0.9	1
O=C(NS(=O)(=O)c1ccc(N[C@H](CCN2CCN(CCOP(=O)(O)O)CC2)CSc2ccccc2)c(S(=O)(=O)C(F)(F)F)c1)c1ccc(N2CCC([C@@H](O)c3ccccc3-c3ccc(Cl)cc3)CC2)cc1 [Example 10, 2-(4-((R)-3-(4-(N-(4-(4-((R)-(4′-chlorobiphenyl-2-yl)(hydroxy)methyl)piperidin-1-yl)benzoyl)sulfamoyl)-2-(trifluoromethylsulfonyl)phenylamino)-4-(phenylthio)butyl)piperazin-1-yl)ethyl dihydrogen phosphate]	0.7	1
O=C(NS(=O)(=O)c1ccc(N[C@H](CCN2CCOCC2)CSc2ccccc2)c(S(=O)(=O)C(F)(F)F)c1)c1ccc(N2CCC([C@@H](O)c3ccccc3-c3ccc(Cl)cc3)CC2)cc1 [Example 15, 4-(4-((R)-(4′-chlorobiphenyl-2-yl)(hydroxy)methyl)piperidin-1-yl)-N-(4-((R)-4-morpholino-1-(phenylthio)butan-2-ylamino)-3-(trifluoromethylsulfonyl)phenylsulfonyl)benzamide]	3	1
O=C(NS(=O)(=O)c1ccc(N[C@H](CCN2CCOCC2)CSc2ccccc2)c([N+](=O)[O-])c1)c1ccc(N2CCC([C@@H](O)c3ccccc3-c3ccc(Cl)cc3)CC2)cc1 [Example 16, 4-(4-((R)-(4′-chlorobiphenyl-2-yl)(hydroxy)methyl)piperidin-1-yl)-N-(4-((R)-4-morpholino-1-(phenylthio)butan-2-ylamino)-3-nitrophenylsulfonyl)benzamide]	0.8	1
O=C(NS(=O)(=O)c1ccc(N[C@H](CCN(CCO)CCO)CSc2ccccc2)c(S(=O)(=O)C(F)(F)F)c1)c1ccc(N2CCC([C@@H](O)c3ccccc3-c3ccc(Cl)cc3)CC2)cc1 [Example 5, N-(4-((R)-4-(bis(2-hydroxyethyl)amino)-1-(phenylthio)butan-2-ylamino)-3-(trifluoromethylsulfonyl)phenylsulfonyl)-4-(4-((R)-(4′-chlorobiphenyl-2-yl)(hydroxy)methyl)piperidin-1-yl)benzamide, formic acid salt]	0.8	1
N[C@@H](c1ccccc1-c1ccc(Cl)cc1)C1CCN(c2ccc(C(=O)NS(=O)(=O)c3ccc(N[C@H](CCN4CCOCC4)CSc4ccccc4)c(S(=O)(=O)C(F)(F)F)c3)cc2)CC1 [Example 33, 4-(4-((R)-amino(4′-chlorobiphenyl-2-yl)methyl)piperidin-1-yl)-N-(4-((R)-4-morpholino-1-(phenylthio)butan-2-ylamino)-3-(trifluoromethylsulfonyl)phenylsulfonyl)benzamide, formic acid salt]	30	33
CCN(CCO)CC[C@H](CSc1ccccc1)Nc1ccc(S(=O)(=O)NC(=O)c2ccc(N3CCC([C@@H](N)c4ccccc4-c4ccc(Cl)cc4)CC3)cc2)cc1S(=O)(=O)C(F)(F)F [Example 12, 4-(4-((R)-amino(4′-chlorobiphenyl-2-yl)methyl)piperidin-1-yl)-N-(4-((R)-4-(ethyl(2-hydroxyethyl)amino)-1-(phenylthio)butan-2-ylamino)-3-(trifluoromethylsulfonyl)phenylsulfonyl)benzamide, formic acid salt]	3	3
CN(CCO)CC[C@H](CSc1ccccc1)Nc1ccc(S(=O)(=O)NC(=O)c2ccc(N3CCC([C@@H](N)c4ccccc4-c4ccc(Cl)cc4)CC3)cc2)cc1S(=O)(=O)C(F)(F)F [Example 11, 4-(4-((R)-amino(4′-chlorobiphenyl-2-yl)methyl)piperidin-1-yl)-N-(4-((R)-4-((2-hydroxyethyl)(methyl)amino)-1-(phenylthio)butan-2-ylamino)-3-(trifluoromethylsulfonyl)phenylsulfonyl)benzamide, formic acid salt]	4	3
O=C(NS(=O)(=O)c1ccc(N[C@H](CCN2CCOC[C@H]2CO)CSc2ccccc2)c(S(=O)(=O)C(F)(F)F)c1)c1ccc(N2CCC([C@@H](O)c3ccccc3-c3ccc(Cl)cc3)CC2)cc1 [Example 24, 4-(4-((R)-(4′-chlorobiphenyl-2-yl)(hydroxy)methyl)piperidin-1-yl)-N-(4-((R)-4-((R)-3-(hydroxymethyl)morpholino)-1-(phenylthio)butan-2-ylamino)-3-(trifluoromethylsulfonyl)phenylsulfonyl)benzamide, formic acid salt]	0.4	–
CCN(CC)C[C@H]1COCCN1CC[C@H](CSc1ccccc1)Nc1ccc(S(=O)(=O)NC(=O)c2ccc(N3CCC([C@@H](O)c4ccccc4-c4ccc(Cl)cc4)CC3)cc2)cc1S(=O)(=O)C(F)(F)F [Example 20, 4-(4-((R)-(4′-chlorobiphenyl-2-yl)(hydroxy)methyl)piperidin-1-yl)-N-(4-((R)-4-((S)-3-((diethylamino)methyl)morpholino)-1-(phenylthio)butan-2-ylamino)-3-(trifluoromethylsulfonyl)phenylsulfonyl)benzamide]	0.3	1
CN(C)[C@@H](c1ccccc1-c1ccc(Cl)cc1)C1CCN(c2ccc(C(=O)NS(=O)(=O)c3ccc(N[C@H](CCN4CCOCC4)CSc4ccccc4)c(S(=O)(=O)C(F)(F)F)c3)cc2)CC1 [Example 36, 4-(4-((R)-(4′-chlorobiphenyl-2-yl)(dimethylamino)methyl)piperidin-1-yl)-N-(4-((R)-4-morpholino-1-(phenylthio)butan-2-ylamino)-3-(trifluoromethylsulfonyl)phenylsulfonyl)benzamide, hydrochloride salt]	24	18
O=C(NS(=O)(=O)c1ccc(N[C@H](CCN2CCOC[C@@H]2CO)CSc2ccccc2)c(S(=O)(=O)C(F)(F)F)c1)c1ccc(N2CCC([C@@H](O)c3ccccc3-c3ccc(Cl)cc3)CC2)cc1 [Example 25, 4-(4-((R)-(4′-chlorobiphenyl-2-yl)(hydroxy)methyl)piperidin-1-yl)-N-(4-((R)-4-((S)-3-(hydroxymethyl)morpholino)-1-(phenylthio)butan-2-ylamino)-3-(trifluoromethylsulfonyl)phenylsulfonyl)benzamide, hydrochloride salt]	0.4	–
NCC(=O)N[C@@H](c1ccccc1-c1ccc(Cl)cc1)C1CCN(c2ccc(C(=O)NS(=O)(=O)c3ccc(N[C@H](CCN4CCOCC4)CSc4ccccc4)c(S(=O)(=O)C(F)(F)F)c3)cc2)CC1 [Example 35, 4-(4-((R)-(2-aminoacetamido)(4′-chlorobiphenyl-2-yl)methyl)piperidin-1-yl)-N-(4-((R)-4-morpholino-1-(phenylthio)butan-2-ylamino)-3-(trifluoromethylsulfonyl)phenylsulfonyl)benzamide hydrochloride salt]	38	22
O=C(NS(=O)(=O)c1ccc(N[C@H](CCN2CCO[C@@H](CO)C2)CSc2ccccc2)c(S(=O)(=O)C(F)(F)F)c1)c1ccc(N2CCC([C@@H](O)c3ccccc3-c3ccc(Cl)cc3)CC2)cc1 [Example 22, 4-(4-((R)-(4′-chlorobiphenyl-2-yl)(hydroxy)methyl)piperidin-1-yl)-N-(4-((R)-4-((R)-2-(hydroxymethyl)morpholino)-1-(phenylthio)butan-2-ylamino)-3-(trifluoromethylsulfonyl)phenylsulfonyl)benzamide, formic acid salt]	0.6	3
4-(4-((R)-(4′-chlorobiphenyl-2-yl)(cyano)methyl)piperidin-1-yl)-N-(4-((R)-4-morpholino-1-(phenylthio)butan-2-ylamino)-3-(trifluoromethylsulfonyl)phenylsulfonyl)benzamide and 4-(4-((S)-(4′-chlorobiphenyl-2-yl)(cyano)methyl)piperidin-1-yl)-N-(4-((R)-4-morpholino-1-(phenylthio)butan-2-ylamino)-3-(trifluoromethylsulfonyl)phenylsulfonyl)benzamide, mixture of diastereomers [Example 17]	–	1
